According to patent US6723897B2, “Methods for controlling gibberellin levels” (Monsanto Technology, LLC, priority 1998, dated 2004):
Values belong to the compound of their own block, whether it stands above or below them.

What was measured:
wild-type A3237 soybean = assay: Hilum treatment of soybean seeds, seedling growth and development, wild-type soybean; format: in vivo, Glycine max; design: key to Emergence timing / Hypocotyl length (6 DAP) / 1st internode length (12 DAP) / 3rd internode length (20 DAP): pos: emergence faster/stem segment longer than controls; 0: emergence timing/stem segment length similar to controls; neg: emergence slower/stem segment shorter than controls; conditions: for Lowest rate where biological activity is observed, 1st internode length (10 DAP) / Lowest rate where biological activity is observed, emergence timing / Lowest rate where biological activity is observed, hypocotyl length (5 DAP): rate response; for 1st internode length (12 DAP) / Emergence timing / Hypocotyl length (6 DAP): single rate per compound 8.3-16.5 μg/seed
Protocol: (§1) In the previous experiments, the effect of various GA compounds on transgenic, GA-deficient and wild-type soybean is evaluated by treating seeds with these compounds via imbibition. Several of these compounds are not completely soluble in water, which limited the interpretation of their utility in rescuing GA-deficient dwarf plants. The purpose of this experiment is to reevaluate selected, previously tested compounds, and additional compounds, by introducing them to the seed via the hilum. As shown by the results presented below, direct application of small quantities of GA compounds dissolved in an organic solvent to the hilum is an effective method of treating soybean seeds. As in the previously described experiments, comparison is made between activity on GA-deficient soybean seedlings and normal (wild-type) seedlings. […] soybean seeds are supplied by Asgrow Seed Company (Des Moines, Iowa). Seed of GA-deficient transgenic soybean line 719 is created by transformation of […] soybean with pMON29801 (FMV/antisense CPScc). Fifth generation seed (R5) is used for these experiments. […] When multiple droplets are applied, each 1 μl droplet is allowed to dry before subsequent droplets are added. Ethanol minus compound is used a treatment control. […] (29° C.) and 75° F. (24° C.), respectively. Emergence timing is measured by counting the number of emerged seedlings at different times after planting. Emergence is defined as the presence of cotyledons raised to soil level or above. […] To assess the ability of a seed treatment to deliver biological activity beyond the first internode, measurements are taken on selected treatments after prolonged growth and development.

[1] = test system: GA-deficient transgenic soybean line 719 (R5); assay: Hilum treatment of soybean seeds, seedling growth and development, GA-deficient soybean; format: in vivo, Glycine max; design: key to Emergence timing / Hypocotyl length (6 DAP) / 1st internode length (12 DAP) / 3rd internode length (20 DAP) / 2nd internode length (12 DAP): pos: emergence faster/stem segment longer than controls; 0: emergence timing/stem segment length similar to controls; neg: emergence slower/stem segment shorter than controls; conditions: for Lowest rate where biological activity is observed, 1st internode length (10 DAP) / Lowest rate where biological activity is observed, emergence timing / Lowest rate where biological activity is observed, hypocotyl length (5 DAP) / 1st internode length (12 DAP) / Emergence timing / Hypocotyl length (6 DAP): L719, hilum treatment; for Lowest rate where biological activity is observed, 1st internode length (10 DAP) / Lowest rate where biological activity is observed, emergence timing / Lowest rate where biological activity is observed, hypocotyl length (5 DAP): rate response; for 1st internode length (12 DAP) / Emergence timing / Hypocotyl length (6 DAP): single rate per compound 8.3-16.5 μg/seed; for activity on line 719 in terms of emergence timing and hypocotyl length: single rate, concentration that does not affect normal plant tissue
Protocol: as §1

[2] = test system: wild-type soybean line A3237; assay: Experiment I greenhouse test, seed imbibition, wild-type soybean; conditions: 0.25 mg/ml; seeds imbibed 5 hours
Protocol: Compounds are first prepared as 25 mg/ml solutions in ethanol as described above, and then diluted into 40 ml of water to prepare the final 0.25 mg/ml treatment solutions. Visual observations on solubilities (milky, clear, etc.) of the treatment solutions are noted. The treatment solutions are divided into two 20 ml portions, each in 50 ml plastic centrifuge tubes. In addition to treating seeds with solutions containing the test compounds, untreated seeds and seeds imbibed in ethanol-water solution (300 μl ethanol in 30 mls of water) are also included in this experiment as controls. […]
(§2) After imbibition, seeds are removed from the test tubes, placed on wax paper to dry, and planted in bread pans containing farm soil amended with fertilizer at 20 seeds/pan. Seeds are covered with 0.5″ of vermiculite. Pans are transferred to the greenhouse, which had day/night temperatures of 86/68° F. (30/20° C.), and subirrigated. Illumination is at a light intensity of 300-400 μmolm^−2s^−1 photosynthetic photon flux; 16 hours light/8 hours dark. Subsequent waterings are also through sub-irrigation until the test is terminated three weeks later. Observations included the number of dwarf, intermediate, and tall plants; plant height; uniformity of rescue; and any visual effects.

[3] = test system: wild-type soybeans (line A3237); assay: Summary of first two greenhouse experiments, elongation of wild-type soybeans
Protocol: (§3) Compounds are first prepared as 25 mg/ml solutions in ethanol as described above, and then diluted into 40 ml of water to prepare the final 0.25 mg/ml treatment solutions. Visual observations on solubilities (milky, clear, etc.) of the treatment solutions are noted. The treatment solutions are divided into two 20 ml portions, each in 50 ml plastic centrifuge tubes. In addition to treating seeds with solutions containing the test compounds, untreated seeds and seeds imbibed in ethanol-water solution (300 μl ethanol in 30 mls of water) are also included in this experiment as controls. In the latter case, 20 seeds are imbibed in 30 mls of solution for six hours.
as §2, with “Two soybean varieties are selected for testing: constitutively GA-deficient transgenic dwarf soybean line 719 (plasmid pMON29801, constitutive FMV promoter/asCPScc; which is a mixture of 719−2 and 719+17), and A3237, the wild-type parent material. […] After” for “After”
(§4) All compounds are tested at final concentrations of 0.25, 0.025, and 0.0025 mg/ml except for GA9, which is tested at 0.125, 0.0125, and 0.00125 mg/ml. (The compounds are tested in Experiment I at only one concentration, i.e., 0.25 mg/ml). Test tubes contained […] of ethanol solution per tube. Final volumes are made up to 30 ml with deionized water. After shaking, the treatment solutions (15 ml each) are transferred to each of two 50 ml test tubes. Treatments 1 to 27 are performed on wild-type line A3237; treatments 28 to 54 are performed on constitutively GA-deficient transgenic dwarf soybean line 719 (a mixture of 719−2 and 719+17). Twenty seeds are used in each treatment. Dry seed, ethanol/water-imbibed seed (1% ethanol in water, v/v), and water-imbibed seeds are included as controls. Seeds are imbibed for 6 hours in the test solutions, then planted in bread pans containing Metromix 350 (The Scotts Company, Marysville, Ohio), and covered with 0.5″ Metro-mix. Covered pans are transferred to the greenhouse and subirrigated. Illumination is at a light intensity of 300-400 μmolm^−2s^−1 photosynthetic photon flux; 16 hours light/8 hours dark. Subsequent waterings are also through sub-irrigation until the test is terminated three weeks later. Observations included the number of dwarf, intermediate, and tall plants; plant height; uniformity of rescue; and any visual effects. Digital photographs are also taken.

[4] = test system: constitutively GA-deficient transgenic dwarf soybean line 719; assay: Experiment I greenhouse test, seed imbibition, GA-deficient soybean; format: in vivo, Glycine max; design: Observation on Transgenic Line 719: key: −1: treated plants are shorter as compared to untreated plants; 0: treated plants had the same stature as untreated plants; 1: treated plants are slightly elongated as compared to untreated plants; 2: treated plants are moderately elongated as compared to untreated plants; 3: treated plants are highly elongated as compared to untreated plants; 4: treated plants are extremely elongated as compared to untreated plants; conditions: 0.25 mg/ml; for effect in both the constitutive transgenic dwarf and wild-type soybean lines: imbibition, lines 719 and A3237; for Observation on Transgenic Line 719: seeds imbibed 5 hours
Source text: Seeds are covered with 0.5″ of vermiculite.

[5] = test system: constitutively GA-deficient transgenic dwarf soybean line 719; assay: Experiment II second greenhouse test, seed imbibition, GA-deficient soybean; format: in vivo, Glycine max; conditions: seeds imbibed 6 hours
Protocol: as §4, with “(The” for “All compounds are tested at final concentrations of 0.25, 0.025, and 0.0025 mg/ml except for GA9, which is tested at 0.125, 0.0125, and 0.00125 mg/ml. (The”, “Treatments 1 to 27 are performed on wild-type line A3237; treatments 28 to 54 are performed on constitutively GA-deficient transgenic dwarf soybean line 719 (a mixture of 719−2 and 719+17).” left out

[6] = test system: constitutively GA-deficient transgenic dwarf soybeans (line 719); assay: Summary of first two greenhouse experiments, rescue of GA-deficient soybeans; format: in vivo, Glycine max; design: key: +: transgenic soybeans are rescued; 0: transgenic soybeans are not rescued
Protocol: as §3
as §2, with “Two soybean varieties are selected for testing: constitutively GA-deficient transgenic dwarf soybean line 719 (plasmid pMON29801, constitutive FMV promoter/asCPScc; which is a mixture of 719−2 and 719+17), and A3237, the wild-type parent material. […] After” for “After”
as §4

[7] = Particulate material present in solutions after mixing; format: physicochemical
Protocol: Each of the compounds noted above is weighed to the nearest 0.1 mg in a pre-tarred 1.5-ml polypropylene vial with a screw-top lid. Absolute ethanol is added to the weighed powder to prepare a 25 mg/ml solution. Solutions are thoroughly mixed using a vortex mixer. A stainless steel spatula is used to crush any particulate material remaining after extensive mixing. Vials are left overnight at room temperature, and then remixed to form the concentrated ethanol stock solutions. The presence of undissolved material is noted throughout this procedure.

[8] = 0.0025 mg/ml solution (ethanol-water)
[9] = 0.025 mg/ml solution (ethanol-water)
[10] = 0.25 mg/ml solution (ethanol-water)

Compound: C=C1C[C@]23C[C@@]1(O)CC[C@H]2[C@]1(C)CCC[C@@](C)(C(=O)O)[C@H]1[C@@H]3C(=O)O [GA53]
Lowest rate where biological activity is observed, 1st internode length (10 DAP) (wild-type A3237 soybean): >10 μg/seed | Lowest rate where biological activity is observed, emergence timing (wild-type A3237 soybean): >10 μg/seed | Lowest rate where biological activity is observed, hypocotyl length (5 DAP) (wild-type A3237 soybean): >10 μg/seed | 1st internode length (12 DAP) (wild-type A3237 soybean): neg | Emergence timing (wild-type A3237 soybean): 0 | Hypocotyl length (6 DAP) (wild-type A3237 soybean): 0 | Lowest rate where biological activity is observed, 1st internode length (10 DAP) [1]: >10 μg/seed | Lowest rate where biological activity is observed, emergence timing [1]: 1 μg/seed | Lowest rate where biological activity is observed, hypocotyl length (5 DAP) [1]: 1 μg/seed | 1st internode length (12 DAP) [1]: 0 | Emergence timing [1]: pos | Hypocotyl length (6 DAP) [1]: pos | activity on line 719 in terms of emergence timing and hypocotyl length ([1]; hilum): biologically active

Compound: C=C1C[C@]23C[C@@]1(O)CC[C@H]2[C@@]12CC[C@H](O)[C@@](C)(C(=O)O1)[C@H]2[C@@H]3C(=O)O [GA1]
Observation on Wild-Type Line A3237 [2]: 4 | Elongation of wild-type soybeans [3, 8]: − | Elongation of wild-type soybeans [3, 9]: + | Elongation of wild-type soybeans [3, 10]: + | effect in both the constitutive transgenic dwarf and wild-type soybean lines [4]: excessive elongation | Observation on Transgenic Line 719 [4]: 4 | Significant Visual Observations on Line 719 ([5]; 0.0025 mg/ml): Good rescue of dwarfs | Significant Visual Observations on Line 719 ([5]; 0.025 mg/ml): Good rescue of dwarfs | Rescue of GA-deficient soybeans [6, 8]: + | Rescue of GA-deficient soybeans [6, 9]: + | Rescue of GA-deficient soybeans [6, 10]: +

Compound: C=C1C[C@@]23CC[C@@H]4[C@](C)(CO)CCC[C@@]4(C)[C@@H]2CC[C@@H]1C3 [kaurenol]
Lowest rate where biological activity is observed, 1st internode length (10 DAP) (wild-type A3237 soybean): >100 μg/seed | Lowest rate where biological activity is observed, emergence timing (wild-type A3237 soybean): >100 μg/seed | Lowest rate where biological activity is observed, hypocotyl length (5 DAP) (wild-type A3237 soybean): >100 μg/seed | 1st internode length (12 DAP) (wild-type A3237 soybean): 0 | Emergence timing (wild-type A3237 soybean): 0 | Hypocotyl length (6 DAP) (wild-type A3237 soybean): 0 | Lowest rate where biological activity is observed, 1st internode length (10 DAP) [1]: >100 μg/seed | Lowest rate where biological activity is observed, emergence timing [1]: >100 μg/seed | Lowest rate where biological activity is observed, hypocotyl length (5 DAP) [1]: >100 μg/seed | 1st internode length (12 DAP) [1]: 0 | Emergence timing [1]: pos | Hypocotyl length (6 DAP) [1]: pos | confirmation of activity previously observed ([1]; rate up to 100 ng/seed, hilum): not confirmed | activity on line 719 in terms of emergence timing and hypocotyl length ([1]; hilum): biologically active

Compound: C=C1C[C@]23C[C@H]1CC[C@H]2[C@@]12CC[C@H](O)[C@@](C)(C(=O)O1)[C@H]2[C@@H]3C(=O)O [GA4]
Observation on Wild-Type Line A3237 [2]: 2 | Elongation of wild-type soybeans [3, 10]: + | effect in both the constitutive transgenic dwarf and wild-type soybean lines [4]: slight to medium elongation | Observation on Transgenic Line 719 [4]: 2 | Rescue of GA-deficient soybeans [6, 10]: +

Observation on Wild-Type Line A3237 [2]: 1 | solubility in water during imbibition ([7]; 0.25 mg/ml treatment solutions): less soluble in water during imbibition
Compound: C=C1C[C@]23C[C@H]1CC[C@H]2[C@@]12CC[C@H](O)[C@@](C)(C(=O)O1)[C@H]2[C@@H]3C(=O)OC [GA4 methyl ester]
effect in both the constitutive transgenic dwarf and wild-type soybean lines [4]: slight to medium elongation | Observation on Transgenic Line 719 [4]: 1 | Rescue of GA-deficient soybeans [6, 10]: 0

Observation on Wild-Type Line A3237 [2]: 1 | Particulate material present, 100X Diln w/water ([7]; 0.25 mg/ml compound in water): YES
Compound: C=C1C[C@]23C[C@H]1CC[C@H]2[C@@]12C=C[C@H](O)[C@@](C)(C(=O)O1)[C@H]2[C@@H]3C(=O)OC [GA7 methyl ester]
effect in both the constitutive transgenic dwarf and wild-type soybean lines [4]: slight to medium elongation | Observation on Transgenic Line 719 [4]: 2 | Rescue of GA-deficient soybeans [6, 10]: 0

Compound: C=C1C[C@]23C[C@@]1(O)CC[C@H]2[C@@]12CCC[C@@](C)(C(=O)O1)[C@H]2[C@@H]3C(=O)O [GA20]
Observation on Wild-Type Line A3237 [2]: 4 | Elongation of wild-type soybeans [3, 8]: + | Elongation of wild-type soybeans [3, 9]: + | Elongation of wild-type soybeans [3, 10]: + | effect in both the constitutive transgenic dwarf and wild-type soybean lines [4]: excessive elongation | Observation on Transgenic Line 719 [4]: 4 | Significant Visual Observations on Line 719 ([5]; 0.0025 mg/ml): Good rescue of dwarfs | Significant Visual Observations on Line 719 ([5]; 0.025 mg/ml): Good rescue of dwarfs | Significant Visual Observations on Line 719 ([5]; 0.25 mg/ml): Excessive elongation | Rescue of GA-deficient soybeans [6, 8]: + | Rescue of GA-deficient soybeans [6, 9]: + | Rescue of GA-deficient soybeans [6, 10]: +
